Measured values: US4407795A, “Inclusion compound of p-hexadecylamino benzoic acid in cyclodextrin and method of use” (American Cyanamid Company, priority 1981, dated 1983)
Entries after “also recorded” stand apart in the source; their conditions may differ.

Experiments:
[1] = in vivo; cited from earlier work
[2] = rat; cited from earlier work
[3] = system: fatty acyl-CoA: cholesterol acyl transferase (ACAT); assay: Inhibition of arterial cholesterol-esterifying enzyme; assay type: biochemical; details: in words
[4] = Effects on arterial wall / atherosclerotic plaque; assay type: in vivo
[5] = Luminal narrowing and myocardial blood flow; assay type: in vivo
[6] = Serum lipoproteins; assay type: in vivo
[7] = cited from earlier work
[8] = in words; cited from earlier work
[9] = mainly as glucose formed by enzymatic hydrolysis; cited from earlier work

N[C@H](Cc1cc(I)c(Oc2cc(I)c(O)c(I)c2)c(I)c1)C(=O)O [D-thyroxine]
lowering blood lipids [1]: effective to varying degrees in lowering blood lipids

COc1ccc2c(c1)c(CC(=O)O)c(C)n2C(=O)c1ccc(Cl)cc1 [Indomethacin]
bioavailability with β-cyclodextrin [2]: enhance the bioavailability

CCOC(=O)C(C)(C)Oc1ccc(Cl)cc1 [clofibrate]
lowering blood lipids [1]: effective to varying degrees in lowering blood lipids

O=C(O)c1cccnc1 [nicotinic acid]
lowering blood lipids [1]: effective to varying degrees in lowering blood lipids

CCCCCCCCCCCCCCCCNc1ccc(C(=O)[O-])cc1.[Na+] [p-hexadecylamino benzoic acid sodium salt]
inhibition of arterial cholesterol-esterifying enzyme (ACAT) [3]: inhibited by this compound | area and thickness of the plaque (incidence and severity of plaque formation) ([4]; arterial wall): decrease of both the area and the thickness of the plaque | deposition of collagen and elastin ([4]; arterial wall): reduction of deposition of connective-tissue collagen and elastic-fiber elastin | formation of the extracellular matrix and trapping of very low-density lipoproteins ([4]; arterial wall): lowering of the formation of the extracellular matrix and its trapping of very low-density lipoproteins | immobilization of cholesterol in the form of ester ([4]; arterial wall): decreased immobilization of cholesterol in the form of ester | smooth-muscle cell proliferation ([4]; arterial wall): decreased smooth-muscle cell proliferation | calcium deposition ([4]; arterial wall / plaque, sodium salt): reduced calcium deposition; also recorded: minimizes the calcium deposition in the plaque | progression of atherosclerosis ([4]; in words): inhibit the progression of atherosclerosis | reduction in the luminal narrowing ([5]; 4 major coronary arteries): 2 fold | luminal narrowing in major peripheral arteries ([5]; major peripheral arteries): Reductions in luminal narrowing are seen in major peripheral arteries as well | myocardial blood flow ([5]; non-stressed and stressed heart): increases in myocardial blood flow in the non-stressed and the stressed heart | high-density lipoprotein in the serum, increase ([6]; in vivo): 2 fold | HDL concentrations ([6]; in words): elevates HDL concentrations | very low-density lipoproteins ([6]; in words): antiatherogenic decrease in the atherogenic very low-density lipoproteins

O=C(O)c1ccccc1O [salicylic acid]
bioavailability in man as β-cyclodextrin inclusion compound [7]: increased bioavailability

CCCCCCCCCCCCCCCCCC(=O)O [stearic acid]
bioavailability with β-cyclodextrin [2]: enhance the bioavailability

OC[C@H]1O[C@@H]2O[C@H]3[C@H](O)[C@@H](O)[C@@H](O[C@H]4[C@H](O)[C@@H](O)[C@@H](O[C@H]5[C@H](O)[C@@H](O)[C@@H](O[C@H]6[C@H](O)[C@@H](O)[C@@H](O[C@H]7[C@H](O)[C@@H](O)[C@@H](O[C@H]8[C@H](O)[C@@H](O)[C@@H](O[C@H]1[C@H](O)[C@H]2O)O[C@@H]8CO)O[C@@H]7CO)O[C@@H]6CO)O[C@@H]5CO)O[C@@H]4CO)O[C@@H]3CO [β-cyclodextrin]
toxicity [8]: lack of toxicity | absorbed by man upon oral administration [9]: less than 0.01%
